In patent EP0600087A1, “METHOD AND KIT OF IN VITRO IRRITATION TEST” (priority 1991, dated 1993):
Where two headings read alike, the source gives them in different places.

Assays:
rabbit = assay: Draize method, ocular irritation; type: in vivo; conditions: for Draize score Ocular irritation: Table 1, Conc. of test substance 0.5%; for Actual evaluation: Table 3, Draize ocular irritation score used for the regression; for Found value: Table 4, measurements according to the Draize method
Source text: The assay and evaluation as to whether or not a foreign substance gives harmful irritation to a living body which induces vital reactions, for example, inflammation, hemolysis, opacification, and swelling, are essential in the product development in the technical fields of cosmetics, medicines, and other medical materials and oleo chemicals where a particular substance is directly applied to the living body At the present time, experimental animals are mainly used for these assay and evaluation. In the tests, particularly in irritation tests, use is made of a skin irritation test (primary irritation and accumulating irritation), an ocular irritation test, a patch test, and a mucous membrane irritation test (tunica mucosa oris and urogenital mucosa membrane). For example, in the ocular irritation test, the Draize method, which uses a rabbit, is generally adopted. In this method, the ocular irritation by a test substance is assayed particularly through (1) the determination of the degree of clouding of the cornea, (2) the evaluation of the incidence of congestion or edema of the conjunctiva, and (3) the evaluation of the incidence of congestion or swelling of the iris.
The same test substance as that used above was subjected to a test according to the Draize method.

[1] = Estimate of Draize score by regression of HDR values (Example 3); conditions: Draize score estimated by 17.61 + 0.624 1% HDR + 0.481 0.016% HDR
Source text: The results thus obtained were subjected to regression using the following associative equation to obtain the above-described correlation coefficient. 17.61 + 0.624 1% HDR + 0.481 0.016% HDR [formula] Consequently, a very good correspondence was observed even with evaluation by a plurality of concentrations.

[2] = Estimate of Draize score by regression of RBC and HDR values (Example 4); conditions: estimated value based on the Draize method using the associative equation with RBC, 2% HDR, 0.25% HDR, 0.063% HDR
Source text: • Method 1: The procedure as described in Example 1 was repeated. • Method 2: The procedure as described in Example 2 was repeated.
The results obtained from the two methods were subjected to regression using the associative equation below: […]
Here, the calculated values are estimated values based on the Draize method using the above-described associative equation, and the found values are measurements according to the Draize method.

[3] = Table 1, Conc. of test substance 0.5%

| SMILES | Draize score Ocular irritation (rabbit) | Actual evaluation (rabbit) | Found value (rabbit) | Draize score Primary ocular irritation (in vivo) | Draize score Primary skin irritation (in vivo) | Estimated value [1] | Calculated value [2] | Draize score Primary ocular irritation [3] |
| --- | --- | --- | --- | --- | --- | --- | --- | --- |
| CCCCCCCCCCCCCCCC[n+]1ccccc1 [Cetyl pyridinium chloride] | 70 | 70.000 | 35 | 4.0 | 4.0 | – | – | – |
| CCCCCCCCOc1ccccc1 [Octyl phenyl ether] | 8.7 | 3.700 | 8.7 | – | – | 17.610 | 6.9685 | 0.2 |
| CCCCCCCCCCCCOS(=O)(=O)[O-].[Na+] [SDS, sodium dodecylsulfate] | 35.1 | 35.100 | 70 | – | – | 43.331 | 70.5078 | 6.9 |
